Laboratory results from US6753348B2, “BTK inhibitors and methods for their identification and use” (Parker Hughes Institute, priority 1998, dated 2004).

How the values were obtained:
[1] = test system: fetal liver derived human mast cells; experiment: IgE/anti-IgE stimulated leukotriene C4 release, fetal liver derived human mast cells; format: cell-based; settings: 100 μM, 30 min before anti-IgE challenge
Experimental: FIG. 27: Effect of LFM and LFM-A8 on IgE receptor/Fc epsilon RI-mediated human mast cell leukotriene C4 release. IgE sensitized fetal liver derived human mast cells were stimulated by challenging with anti-IgE. To study the effect of the test compounds, mast cells were incubated with vehicle or 100 μM LFM or LFM-A8 prior to challenge with anti-IgE. Leukotriene C4 levels were measured in cell-free supernatants by ELISA. Vehicle treated 10^6 mast cells released 12.5±2.2 ng leukotriene C4. The results are expressed as percent of vehicle-treated controls (N=4). The data points represent the mean±SEM values. *P<0.05 compared to vehicle-treated control, as determined by Student's t test.
Mast Cell Cultures. RBL-2H3 mast cells were a gift from Dr. Reuben P. Siraganian (Laboratory of Microbiology and Immunology, National Institute of Dental Research, National Institute of Health). […]
We next sought to determine the effect of LFM-A8 on IgE/FcεRI-mediated human mast cell leukotriene C4 release and compare its potency with that of LFM. […] The Fc[…] receptors of fetal liver-derived human mast cells were crosslinked with anti-IgE and the resulting mast cell leukotriene C4 release was quantitated by ELISA (Malaviya, R. and Abraham, S. N., (1995) Methods Enzymol, 253, 27-43).

HCK = HCK (Homo sapiens, UniProt P08631); experiment: Cell-free tyrosine kinase inhibition assay HCK from transfected COS-7 cells; format: biochemical
Chain of HCK (P08631 whole entry, species assumed): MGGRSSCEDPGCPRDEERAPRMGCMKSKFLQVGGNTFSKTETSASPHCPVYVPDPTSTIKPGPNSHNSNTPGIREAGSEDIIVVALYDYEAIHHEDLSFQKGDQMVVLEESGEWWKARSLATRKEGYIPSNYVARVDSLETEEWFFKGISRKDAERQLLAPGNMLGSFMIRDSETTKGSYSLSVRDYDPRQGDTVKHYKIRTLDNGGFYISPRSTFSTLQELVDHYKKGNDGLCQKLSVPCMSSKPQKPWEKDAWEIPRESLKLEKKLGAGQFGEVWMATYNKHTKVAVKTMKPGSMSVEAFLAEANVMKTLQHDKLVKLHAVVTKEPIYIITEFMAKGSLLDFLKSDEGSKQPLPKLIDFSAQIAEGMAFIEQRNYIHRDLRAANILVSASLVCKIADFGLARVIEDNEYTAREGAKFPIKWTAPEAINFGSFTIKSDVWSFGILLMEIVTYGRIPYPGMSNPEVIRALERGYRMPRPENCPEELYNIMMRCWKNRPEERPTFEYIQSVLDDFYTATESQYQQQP

JAK2 = experiment: Tyrosine kinase assay JAK2 as named in text; format: biochemical; settings: concentrations as high as 100 μg/ml (~278 μM)
[2] = test system: B18.2, NALM-6 and ALL-1 cells; experiment: Chemosensitization to ceramide and vincristine, DNA fragmentation; format: cell-based; settings: 100 μM plus VCR 10 ng/ml or C2-CER 10 μM, 24 hours

CC(O)=C(C#N)C(=O)Nc1cccc(C(F)(F)F)c1 [LFM-A8, α-Cyano-β-hydroxy-β-methyl-N-[3-(trifluoromethyl)phenyl]-propenamide] was tested, and the “leukotriene C4 release from IgE/anti-IgE-stimulated human mast cells” value [1] was “significantly inhibited”.
In the case of C/C(O)=C(\C#N)C(=O)Nc1cc(Br)ccc1Br [LFM-A13, α-Cyano-β-hydroxy-β-methyl-N-(2,5-dibromophenyl)-propenamide], the IC50 (HCK) is reported as greater than 278 µM, the “effect on enzymatic activity of HCK” value (HCK; concentrations as high as 100 μg/ml (~278 μM)) is reported as “did not affect the enzymatic activity” and the “effect on enzymatic activity of JAK2” value (JAK2) is reported as “did not affect the enzymatic activity”. For the same molecule, the “sensitivity to ceramide-induced and vincristine-induced apoptosis” value [2] was “enhances the sensitivity”.
